Experimental data from US20100310685A1, “PUPICIDAL AND LARVICIDAL COMPOSITION” (priority 2008, published 2010).

System: pupae of Nematocera Diptera (for example mosquitoes)
Experiment: specific research on pupicidal action
Conditions: in vivo

CCCCCCCCCCCCCCCCO [cetyl alcohol, 1-hexadecanol]
pupicidal action (kills pupae): excellent pupicide
